Paper PMC6242839 (Nature Communications, 2018)
Values after ≈ are worked out from the molar mass of the structure shown. Read-outs that look alike come from different tables or passages of the source.

Tests used:
[1] = test system: B. anthracis Sterne strain; assay: microbe, parasite or virus in culture; assay type: cell-based; conditions: Bacillus anthracis, read-out: MIC B. anthracis Sterne
[2] = test system: B. anthracis pathogenic strain (human isolate); assay: microbe, parasite or virus in culture; assay type: cell-based; conditions: Bacillus anthracis, read-out: MIC B. anthracis Pathogenic
[3] = test system: B. anthracis ovine strain (animal isolate); assay: microbe, parasite or virus in culture; assay type: cell-based; conditions: Bacillus anthracis, read-out: MIC B. anthracis Ovine
[4] = test system: E. faecalis (ATCC 29212); assay: microbe, parasite or virus in culture; assay type: cell-based; conditions: Enterococcus faecalis, read-out: MIC E. faecalis
[5] = test system: B. cereus (ATCC 10876); assay: microbe, parasite or virus in culture; assay type: cell-based; conditions: Bacillus cereus, read-out: MIC B. cereus
[6] = test system: B. cereus ATCC 14579; assay: microbe, parasite or virus in culture; assay type: cell-based, Bacillus cereus
[7] = test system: B. cereus ATCC 14579; assay: microbe, parasite or virus in culture; assay type: cell-based, Bacillus cereus; remark: listed apart in the source
[8] = test system: B. cereus ATCC 14579 strains resistant to known antibiotics; assay: microbe, parasite or virus in culture; assay type: cell-based, Bacillus cereus
[9] = test system: B. subtilis 168 and knockout mutants; assay: microbe, parasite or virus in culture; assay type: cell-based; conditions: Bacillus subtilis
[10] = test system: B. cereus ATCC 14579 mutant library; assay type: cell-based, Bacillus cereus
[11] = test system: E. coli K12; assay: microbe, parasite or virus in culture; assay type: cell-based; conditions: Escherichia coli
[12] = test system: E. coli K12 spheroplasts; assay: microbe, parasite or virus in culture; assay type: cell-based, Escherichia coli
[13] = test system: B. cereus ATCC 14579; assay: microbe, parasite or virus in culture; assay type: cell-based; conditions: Bacillus cereus, ATCC14579
[14] = test system: B. cereus ATCC 14579 protoplasts; assay: microbe, parasite or virus in culture; assay type: cell-based; conditions: Bacillus cereus, ATCC14579
[15] = test system: S. aureus ATCC 29213; assay: microbe, parasite or virus in culture; assay type: cell-based; conditions: Staphylococcus aureus, ATCC29213
[16] = test system: S. aureus ATCC 29213 protoplasts; assay: microbe, parasite or virus in culture; assay type: cell-based, Staphylococcus aureus
[17] = test system: B. cereus ATCC 14579 spores and vegetative cells; assay: microbe, parasite or virus in culture; assay type: cell-based; conditions: Bacillus cereus
[18] = POPE LUVs, compound 50 µM; for leakage of encapsulated carboxyfluorescein: course of the experiment (14 h)
[19] = POPC LUVs, compound 50 µM
[20] = in vitro; conditions: human
[21] = test system: Bacillus cereus ATCC 14579; conditions: cited from earlier work
[22] = B. subtilis 168, parental isogenic strain

CCCCCCCCCCCCO[C@H]1C[C@H](O)[C@@H](O)[C@H](C)O1 [Compound 1]
MIC ([1]; 16 h): 25 µM (≈ 7.91 µg/mL) | MIC ([2]; 16 h): 25 µM (≈ 7.91 µg/mL) | MIC ([3]; 16 h): 25 µM (≈ 7.91 µg/mL) | MIC ([4]; ATCC29212, 16 h): 50 µM (≈ 15.8 µg/mL) | MIC ([5]; ATCC10876, 16 h): 25 µM (≈ 7.91 µg/mL) | MBC [6]: 0.032 mg/mL (≈ 101 µM) | MBC ([6]; Bacillus cereus, ATCC14579): 0.016 mg/mL (≈ 50.6 µM) | MIC ([6]; Bacillus cereus, ATCC14579): 0.016 mg/mL (≈ 50.6 µM) | 1000-fold reduction (T99.9) [7]: ≤ 60 min | MBC [7]: 0.032 mg/mL (≈ 101 µM) | MBC ([7]; Bacillus cereus, ATCC14579): 0.016 mg/mL (≈ 50.6 µM) | MBC ([8]; Bacillus cereus, ATCC14579): 0.016 mg/mL (≈ 50.6 µM) | MIC ([8]; Bacillus cereus, ATCC14579): 0.016 mg/mL (≈ 50.6 µM) | MBC [9, 22]: 0.032 mg/mL (≈ 101 µM) | MIC [9, 22]: 0.016 mg/mL (≈ 50.6 µM) | MBC ([9]; B. subtilis ΔexpZ): 0.032 mg/mL (≈ 101 µM) | MIC ([9]; B. subtilis ΔexpZ): 0.016 mg/mL (≈ 50.6 µM) | MBC ([9]; B. subtilis ΔmtlA): 0.032 mg/mL (≈ 101 µM) | MIC ([9]; B. subtilis ΔmtlA): 0.016 mg/mL (≈ 50.6 µM) | MBC ([9]; B. subtilis ΔtreP): 0.016 mg/mL (≈ 50.6 µM) | MIC ([9]; B. subtilis ΔtreP): 0.016 mg/mL (≈ 50.6 µM) | MBC ([9]; B. subtilis ΔybbF): 0.016 mg/mL (≈ 50.6 µM) | MIC ([9]; B. subtilis ΔybbF): 0.016 mg/mL (≈ 50.6 µM) | MBC ([9]; B. subtilis ΔybdA): 0.032 mg/mL (≈ 101 µM) | MIC ([9]; B. subtilis ΔybdA): 0.016 mg/mL (≈ 50.6 µM) | MBC ([9]; B. subtilis ΔybdB): 0.032 mg/mL (≈ 101 µM) | MIC ([9]; B. subtilis ΔybdB): 0.016 mg/mL (≈ 50.6 µM) | MBC ([9]; B. subtilis ΔydhO): 0.032 mg/mL (≈ 101 µM) | MIC ([9]; B. subtilis ΔydhO): 0.016 mg/mL (≈ 50.6 µM) | MBC ([9]; B. subtilis ΔyfiB): 0.032 mg/mL (≈ 101 µM) | MIC ([9]; B. subtilis ΔyfiB): 0.032 mg/mL (≈ 101 µM) | MBC ([9]; B. subtilis ΔyfiC): 0.016 mg/mL (≈ 50.6 µM) | MIC ([9]; B. subtilis ΔyfiC): 0.016 mg/mL (≈ 50.6 µM) | MBC ([9]; B. subtilis ΔyfiM): 0.016 mg/mL (≈ 50.6 µM) | MIC ([9]; B. subtilis ΔyfiM): 0.016 mg/mL (≈ 50.6 µM) | MBC ([9]; B. subtilis ΔyfiN): 0.032 mg/mL (≈ 101 µM) | MIC ([9]; B. subtilis ΔyfiN): 0.016 mg/mL (≈ 50.6 µM) | MBC ([9]; B. subtilis ΔyflF): 0.032 mg/mL (≈ 101 µM) | MIC ([9]; B. subtilis ΔyflF): 0.016 mg/mL (≈ 50.6 µM) | MBC ([9]; B. subtilis ΔyfmR): 0.016 mg/mL (≈ 50.6 µM) | MIC ([9]; B. subtilis ΔyfmR): 0.016 mg/mL (≈ 50.6 µM) | MBC ([9]; B. subtilis ΔygaD): 0.016 mg/mL (≈ 50.6 µM) | MIC ([9]; B. subtilis ΔygaD): 0.016 mg/mL (≈ 50.6 µM) | MBC ([9]; B. subtilis ΔyhaQ): 0.016 mg/mL (≈ 50.6 µM) | MIC ([9]; B. subtilis ΔyhaQ): 0.016 mg/mL (≈ 50.6 µM) | MBC ([9]; B. subtilis ΔyhcJ): 0.016 mg/mL (≈ 50.6 µM) | MIC ([9]; B. subtilis ΔyhcJ): 0.016 mg/mL (≈ 50.6 µM) | MBC ([9]; B. subtilis ΔyheH): 0.032 mg/mL (≈ 101 µM) | MIC ([9]; B. subtilis ΔyheH): 0.016 mg/mL (≈ 50.6 µM) | MBC ([9]; B. subtilis ΔyjdD): 0.016 mg/mL (≈ 50.6 µM) | MIC ([9]; B. subtilis ΔyjdD): 0.016 mg/mL (≈ 50.6 µM) | MBC ([9]; B. subtilis ΔykfD): 0.016 mg/mL (≈ 50.6 µM) | MIC ([9]; B. subtilis ΔykfD): 0.016 mg/mL (≈ 50.6 µM) | MBC ([9]; B. subtilis ΔyknU): 0.032 mg/mL (≈ 101 µM) | MIC ([9]; B. subtilis ΔyknU): 0.016 mg/mL (≈ 50.6 µM) | MBC ([9]; B. subtilis ΔykoD): 0.016 mg/mL (≈ 50.6 µM) | MIC ([9]; B. subtilis ΔykoD): 0.016 mg/mL (≈ 50.6 µM) | MBC ([9]; B. subtilis ΔykpA): 0.032 mg/mL (≈ 101 µM) | MIC ([9]; B. subtilis ΔykpA): 0.016 mg/mL (≈ 50.6 µM) | MBC ([9]; B. subtilis ΔyvcC): 0.032 mg/mL (≈ 101 µM) | MIC ([9]; B. subtilis ΔyvcC): 0.016 mg/mL (≈ 50.6 µM) | MBC ([9]; B. subtilis ΔywbA): 0.032 mg/mL (≈ 101 µM) | MIC ([9]; B. subtilis ΔywbA): 0.016 mg/mL (≈ 50.6 µM) | MBC ([9]; B. subtilis ΔywhQ): 0.032 mg/mL (≈ 101 µM) | MIC ([9]; B. subtilis ΔywhQ): 0.016 mg/mL (≈ 50.6 µM) | MBC ([9]; B. subtilis ΔyxdM): 0.032 mg/mL (≈ 101 µM) | MIC ([9]; B. subtilis ΔyxdM): 0.016 mg/mL (≈ 50.6 µM) | MBC ([9]; B. subtilis ΔyybL): 0.032 mg/mL (≈ 101 µM) | MIC ([9]; B. subtilis ΔyybL): 0.016 mg/mL (≈ 50.6 µM) | MIC of mutant library compared with the parental strain [10]: MIC values remain unchanged | MIC [11]: 0.256 mg/mL (≈ 809 µM) | MIC ([12]; Escherichia coli): 0.004 mg/mL (≈ 12.6 µM) | MIC [13]: 0.016 mg/mL (≈ 50.6 µM) | MIC [14]: 0.016 mg/mL (≈ 50.6 µM) | MIC [15]: 0.256 mg/mL (≈ 809 µM) | MIC ([16]; Staphylococcus aureus, ATCC29213): 0.256 mg/mL (≈ 809 µM) | MBC ([17]; ATCC14579, 20 min): 0.008 mg/mL (≈ 25.3 µM) | MBC ([17]; ATCC14579, 0.5 h): 0.008 mg/mL (≈ 25.3 µM) | time of leakage, τL [18]: about 160 min | leakage of encapsulated carboxyfluorescein [18]: ~ 100% | Lmax value obtained from the fit [19]: < 50% | time of leakage, τL [19]: about 692 min | total membrane leakage ([19]; course of the experiment (14 h)): ~ 30% | IC50 at 24 h [20]: 100 µM | IC50 at 48 h [20]: > 50 µM

CCCCCCCCCCCCO[C@@H]1C[C@@H](O)[C@H](O)[C@@H](CO)O1 [Compound 13]
MIC ([1]; 16 h at 37 °C): 386 µM (≈ 128 µg/mL) | MIC ([2]; 16 h at 37 °C): 12 µM (≈ 3.99 µg/mL) | MIC ([3]; 16 h at 37 °C): 12 µM (≈ 3.99 µg/mL) | MIC ([4]; ATCC29212, 16 h at 37 °C): 12 µM (≈ 3.99 µg/mL) | MIC ([5]; ATCC10876, 16 h at 37 °C): 386 µM (≈ 128 µg/mL) | MBC ([6]; Bacillus cereus, ATCC14579): 0.128 mg/mL (≈ 385 µM) | MIC ([6]; Bacillus cereus, ATCC14579): 0.128 mg/mL (≈ 385 µM) | time of leakage, τL [18]: about 326 min | leakage of encapsulated carboxyfluorescein [18]: ~ 10% | time of leakage, τL [19]: ~256 min | IC50 at 24 h [20]: 100 µM | IC50 at 48 h [20]: > 50 µM

CN[C@H](CC(C)C)C(=O)N[C@H]1C(=O)N[C@@H](CC(N)=O)C(=O)N[C@H]2C(=O)N[C@H]3C(=O)N[C@H](C(=O)N[C@H](C(=O)O)c4cc(O)cc(O)c4-c4cc3ccc4O)[C@H](O)c3ccc(c(Cl)c3)Oc3cc2cc(c3O[C@@H]2O[C@H](CO)[C@@H](O)[C@H](O)[C@H]2O[C@H]2C[C@](C)(N)[C@H](O)[C@H](C)O2)Oc2ccc(cc2Cl)[C@H]1O [Vancomycin]
MIC of the antibiotic [8]: 0.005 mg/mL | MIC [21]: 0.00018 mg/mL (≈ 0.124 µM)

Polymyxin B [reference compound]
MIC [12]: > 1000 mg/mL | MIC [16]: > 1000 mg/mL | MIC [21]: 0.781 mg/mL
